# Reference: patent publication US8198311B2, “Modulators of glucocorticoid receptor, AP-1, and/or NF-κB activity and use thereof” (Bristol-Myers Squibb Company, priority 2006, dated 2012)
# Where two headings read alike, the source gives them in different places.
# How the values were obtained:
# [1] = biological target: T1, human glucocorticoid receptor (Homo sapiens, UniProt P04150); assay: Glucocorticoid Receptor Binding Assay (I), fluorescence polarization competitor kit (Fluormone GS Red); details: purified human recombinant full-length GR
# T1 construct: purified human recombinant full-length glucocorticoid receptor (2 nM); purchased Invitrogen Part # 2893
# T1 sequence (P04150 1-777): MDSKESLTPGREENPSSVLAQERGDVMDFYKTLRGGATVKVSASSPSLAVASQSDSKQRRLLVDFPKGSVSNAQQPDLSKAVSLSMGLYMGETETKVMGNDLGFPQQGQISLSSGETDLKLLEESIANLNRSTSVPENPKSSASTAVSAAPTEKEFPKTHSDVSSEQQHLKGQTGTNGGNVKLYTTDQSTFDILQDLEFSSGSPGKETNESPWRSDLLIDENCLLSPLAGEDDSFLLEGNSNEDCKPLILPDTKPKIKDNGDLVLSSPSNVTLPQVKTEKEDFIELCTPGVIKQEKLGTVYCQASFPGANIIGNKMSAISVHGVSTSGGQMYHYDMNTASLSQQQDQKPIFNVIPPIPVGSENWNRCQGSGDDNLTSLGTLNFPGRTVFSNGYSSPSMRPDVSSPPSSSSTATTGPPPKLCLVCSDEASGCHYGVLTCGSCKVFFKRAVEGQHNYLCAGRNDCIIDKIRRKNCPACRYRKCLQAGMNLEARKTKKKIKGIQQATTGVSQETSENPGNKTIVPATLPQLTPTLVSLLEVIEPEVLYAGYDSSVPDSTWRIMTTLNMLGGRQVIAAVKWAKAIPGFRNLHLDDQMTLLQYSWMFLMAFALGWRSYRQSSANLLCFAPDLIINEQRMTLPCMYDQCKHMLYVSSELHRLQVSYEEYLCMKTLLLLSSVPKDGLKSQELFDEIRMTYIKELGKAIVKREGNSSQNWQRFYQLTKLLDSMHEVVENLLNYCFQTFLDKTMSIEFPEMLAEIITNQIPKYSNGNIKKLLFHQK
# Experimental: In order to assess the affinity of test compounds for the human glucocorticoid receptor, a commercially available kit was used (Glucocorticoid Receptor Competitor Assay Kit, Invitrogen Part # 2893). Briefly, purified human recombinant full-length glucocorticoid receptor (2 nM) was mixed with fluorescently labeled glucocorticoid (1 nM Fluormone GS Red) in the presence or absence of test compound. After two hour incubation at room temperature in the dark, the fluorescence polarization (FP) of the samples was measured. […] Test compounds were analyzed in the concentration range from 8.5E-05 μM to 5 μM.
# [2] = tested on: AP-1 induced transcriptional activity; assay: Cellular Transrepressional Assay (AP-1 luciferase reporter in A549 cells, PMA-activated); assay type: cell-based; details: pAP-1-Luc, 10 ng/ml PMA, read-out: AP-1 (EC50, nM) (Cellular Transrepression Assay)
# Experimental: To measure the ability of test molecules to inhibit AP-1 induced transcriptional activity an A549 cell was utilized which was stably transfected with a plasmid containing 7×AP-1 DNA binding sites (pAP-1-Luc plasmid, Stratagene Co. La Jolla, Calif.) followed by the gene for luciferase. Cells were activated with 10 ng/ml of phorbol myristic acid (PMA) plus or minus test molecules for 7 hours. After 7 hours a luciferase reagent was added to measure luciferase enzymatic activity in the cell. After a 10 minute incubation of luciferase reagent with cells, luminescence was measured in a TopCount luminescence counter. Repression of AP-1 activity was calculated as the percentage decrease in the signal induced by PMA alone. Test molecules were analyzed in the concentration range from 0.1 nM to 40 μM. EC50s were determined by using standard curve fitting methods such as Excel fit (Microsoft Co.).
SMILES,Ki [1],"EC50 ([2]; Homo sapiens, A549, 7 h)",EC50 ([2]; 7 hours)
"CC(C)CC(c1ccc2c(cnn2-c2ccc(F)cc2)c1)C(C)(C)CNC(=O)NC(C)(C)c1ccccc1 (centres unmarked) [Example 48, 1-(3-(1-(4-fluorophenyl)-1H-indazol-5-yl)-2,2,5-trimethylhexyl)-3-(2-phenylpropan-2-yl)urea]",3.1 nM,42 nM,–
"CC(C)(CNS(=O)(=O)C1CC1)[C@@H](c1ccccc1)c1ccc2c(cnn2-c2ccc(F)cc2)c1 [Example 12, (S)-N-(3-(1-(4-fluorophenyl)-1H-indazol-5-yl)-2,2-dimethyl-3-phenylpropyl)cyclopropanesulfonamide]",–,211 nM,–
"CC(C)CC(c1ccc2c(cnn2-c2ccc(F)cc2)c1)C(C)(C)CNC(=O)N[C@@H]1CCc2ccccc21 (stereo partly drawn) [Example 71B, 1-((R)-2,3-dihydro-1H-inden-1-yl)-3-(3-(1-(4-fluorophenyl)-1H-indazol-5-yl)-2,2,5-trimethylhexyl)urea]",6.5 nM,511 nM,–
"CC(C)CC(c1ccc2c(cnn2-c2ccc(F)cc2)c1)C(C)(C)CNC(=O)CC(C)(C)c1ccc(Cl)cc1 (centres unmarked) [Example 68, 3-(4-chlorophenyl)-N-(3-(1-(4-fluorophenyl)-1H-indazol-5-yl)-2,2,5-trimethylhexyl)-3-methylbutanamide]",8.1 nM,271 nM,–
"CC(C)CCC(=O)NCC(C)(C)[C@@H](c1ccccc1)c1ccc2c(cnn2-c2ccc(F)cc2)c1 [Example 2, (S)-N-(3-(1-(4-fluorophenyl)-1H-indazol-5-yl)-2,2-dimethyl-3-phenylpropyl)-4-methylpentanamide]",–,508 nM,–
"CC(CNS(=O)(=O)CC(F)(F)F)C(c1ccccc1)c1ccc2c(cnn2-c2ccc(F)cc2)c1 (single isomer, unassigned) [Example 91B, 2,2,2-trifluoro-N-(3-(1-(4-fluorophenyl)-1H-indazol-5-yl)-2-methyl-3-phenylpropyl)ethanesulfonamide]",15 nM,–,201 nM
"CC(CNS(=O)(=O)CC(F)(F)F)C(c1ccccc1)c1ccc2c(cnn2-c2ccc(F)cc2)c1 (single isomer, unassigned) [Example 91D, 2,2,2-trifluoro-N-(3-(1-(4-fluorophenyl)-1H-indazol-5-yl)-2-methyl-3-phenylpropyl)ethanesulfonamide]",74 nM,–,2500 nM
"CC(CNS(=O)(=O)CCC(F)(F)F)C(c1ccccc1)c1ccc2c(cnn2-c2ccc(F)cc2)c1 (centres unmarked) [Example 96, 3,3,3-trifluoro-N-(3-(1-(4-fluorophenyl)-1H-indazol-5-yl)-2-methyl-3-phenylpropyl)propane-1-sulfonamide]",1.6 nM,58 nM,–
"CC(C)C(=O)NCC(C)(C)[C@@H](c1ccccc1)c1ccc2c(cnn2-c2ccc(F)cc2)c1 [Example 4, (S)-N-(3-(1-(4-fluorophenyl)-1H-indazol-5-yl)-2,2-dimethyl-3-phenylpropyl)isobutyramide]",–,1280 nM,–
"CC(C)CC(c1ccc2c(cnn2-c2ccc(F)cc2)c1)C(C)(C)CNC(=O)CC(C)(C)C (centres unmarked) [Example 66, N-(3-(1-(4-fluorophenyl)-1H-indazol-5-yl)-2,2,5-trimethylhexyl)-3,3-dimethylbutanamide]",3 nM,177 nM,–
CC(C)CC(c1ccc2c(cnn2-c2ccc(F)cc2)c1)C(C)(C)CNS(=O)(=O)NC(C)(C)C (centres unmarked) [Example 63],4.3 nM,> 10000 nM,–
"CC(C)CC(c1ccc2c(cnn2-c2ccc(F)cc2)c1)C(C)(C)CNC(=O)NC1CCC(C(C)(C)C)CC1 (centres unmarked) [Example 74, 1-(4-tert-butylcyclohexyl)-3-(3-(1-(4-fluorophenyl)-1H-indazol-5-yl)-2,2,5-trimethylhexyl)urea]",26 nM,> 10000 nM,–
"CC(C)CC(c1ccc2c(cnn2-c2ccc(F)cc2)c1)C(C)(C)CNC(=O)NC(c1ccccc1)c1ccccc1 (centres unmarked) [Example 73, 1-benzhydryl-3-(3-(1-(4-fluorophenyl)-1H-indazol-5-yl)-2,2,5-trimethylhexyl)urea]",13 nM,107 nM,–
"CN(C)S(=O)(=O)NCC(C)(C)[C@@H](c1ccccc1)c1ccc2c(cnn2-c2ccc(F)cc2)c1 [Example 15, (S)-N-dimethyl-N′-(3-(1-(4-fluorophenyl)-1H-indazol-5-yl)-2,2-dimethyl-3-phenylpropyl)propane-1-sulfamide]",–,2780 nM,–
"CC(C)CC(c1ccc2c(cnn2-c2ccc(F)cc2)c1)C(C)(C)CNC(=O)N1CC(N)C1 (centres unmarked) [Example 40, 3-amino-N-(3-(1-(4-fluorophenyl)-1H-indazol-5-yl)-2,2,5-trimethylhexyl)azetidine-1-carboxamide]",11 nM,> 10000 nM,–
"CC(CNC(=O)NC(C)(C)C)C(c1ccccc1)c1ccc2c(cnn2-c2ccc(F)cc2)c1 (single isomer, unassigned) [Example 97A, 1-tert-butyl-3-(3-(1-(4-fluorophenyl)-1H-indazol-5-yl)-2-methyl-3-phenylpropyl)urea]",4 nM,–,71 nM
"CC(CNS(=O)(=O)CC(F)(F)F)C(c1ccccc1)c1ccc2c(cnn2-c2ccc(F)cc2)c1 (single isomer, unassigned) [Example 91A, 2,2,2-trifluoro-N-(3-(1-(4-fluorophenyl)-1H-indazol-5-yl)-2-methyl-3-phenylpropyl)ethanesulfonamide]",2.1 nM,–,5.7 nM
"CC(C)CC(c1ccc2c(cnn2-c2ccc(F)cc2)c1)C(C)(C)CNC(=O)NC1(CO)CCCC1 (centres unmarked) [Example 42, 1-(3-(1-(4-fluorophenyl)-1H-indazol-5-yl)-2,2,5-trimethylhexyl)-3-(1-(hydroxymethyl)cyclopentyl)urea]",2.4 nM,682 nM,–
"CC(C)CC(c1ccc2c(cnn2-c2ccc(F)cc2)c1)C(C)(C)CNC(=O)N[C@@H]1c2ccccc2C[C@@H]1O (stereo partly drawn) [Example 78, 1-(3-(1-(4-fluorophenyl)-1H-indazol-5-yl)-2,2,5-trimethylhexyl)-3-((1R,2S)-2-hydroxy-2,3-dihydro-1H-inden-1-yl)urea]",2.2 nM,813 nM,–
"CC(C)(C)C(=O)NCC(C)(C)[C@@H](c1ccccc1)c1ccc2c(cnn2-c2ccc(F)cc2)c1 [Example 5, (S)-N-(3-(1-(4-fluorophenyl)-1H-indazol-5-yl)-2,2-dimethyl-3-phenylpropyl)pivalamide]",–,1060 nM,–
"C#CC(C)(C)NC(=O)NCC(C)(C)C(CC(C)C)c1ccc2c(cnn2-c2ccc(F)cc2)c1 (centres unmarked) [Example 72, 1-(3-(1-(4-fluorophenyl)-1H-indazol-5-yl)-2,2,5-trimethylhexyl)-3-(2-methylbut-3-yn-2-yl)urea]",55 nM,–,–
"CC(C)(CNC(=O)c1cccs1)[C@H](c1ccccc1)c1ccc2c(cnn2-c2ccc(F)cc2)c1 [Example 20, (R)-N-(3-(1-(4-fluorophenyl)-1H-indazol-5-yl)-2,2-dimethyl-3-phenylpropyl)thiophene-2-carboxamide]",–,573 nM,–
"CC(C)(CNC(=O)Cc1ccccc1)[C@@H](c1ccccc1)c1ccc2c(cnn2-c2ccc(F)cc2)c1 [Example 3, (S)-N-(3-(1-(4-fluorophenyl)-1H-indazol-5-yl)-2,2-dimethyl-3-phenylpropyl)-2-phenylacetamide]",–,2520 nM,–
"CC(C)(CNC(=O)CC(F)(F)F)C1(c2ccc3c(cnn3-c3ccc(F)cc3)c2)CCOCC1 [Example 113, 3,3,3-Trifluoro-N-(2-(4-(1-(4-fluorophenyl)-1H-indazol-5-yl)tetrahydro-2H-pyran-4-yl)-2-methylpropyl)propanamide]",22 nM,–,–
"CC(C)(CNS(=O)(=O)CS(C)(=O)=O)[C@@H](c1ccccc1)c1ccc2c(cnn2-c2ccc(F)cc2)c1 [Example 14, (S)-N-(3-(1-(4-fluorophenyl)-1H-indazol-5-yl)-2,2-dimethyl-3-phenylpropyl)-1-(methylsulfonyl)methanesulfonamide]",–,1860 nM,–
"CC(C)(CNC(=O)C(F)(F)F)[C@@H](c1ccccc1)c1ccc2c(cnn2-c2ccc(F)cc2)c1 [(S)-16, (S)-2,2,2-trifluoro-N-(3-(1-(4-fluorophenyl)-1H-indazol-5-yl)-2,2-dimethyl-3-phenylpropyl)acetamide]",–,2270 nM,–
